# Test results: patent publication US20100256357A1, “HETEROCYCLES USEFUL AS INHIBITORS OF CARBONIC ANHYDRASE” (Agouron Pharmaceuticals, Inc., priority 2006, published 2010)
# Where two headings read alike, the source gives them in different places.
# Tests used:
# [1] = molecular target: T1, human CA-IX (Homo sapiens, UniProt Q16790); assay: Carbonic Anhydrase-IX (CA-IX) Fluorescence Polarization Assay-IC50 Determination; type: binding; details: read-out: CAIX IC50
# T1 construct: purchased R&D Systems Inc. 2188-CA-010
# Procedure: Carbonic Anhydrase-IX (CA-IX) Fluorescence Polarization Assay-IC50 Determination
# Compounds were diluted in DMSO at the concentration of 1 mM, then 50 μM and transferred to a 96-well plate for further dilutions (1:3 dilution, 11 points) in duplicate. Final compound highest concentration in CA-IX FP assay is 1 μM. Assays were conducted in a final volume of 100 μL in 50 mM Tris/HCl (pH 7.6), 100 mM Na2SO4 and 0.005% Tween-20 in a 96-well black assay. plate. […] was used as the tracer. Binding inhibition was determined by pipetting 8 μL of human CA-IX (8 nM, R&D Systems Inc. Cat#2188-CA-010) into assay plate contained 2 μL of compound and 2 μL of tracer (2 nM) in 88 μL of assay buffer. The assay plate was incubated at room temperature for 30 minutes and read in the fluorescence polarization reader (Molecular Devices, Analyst) at 524/45 nm (excitation), 595/60 nm (emission) and 561 nm (bean splitter). […] GraphPad Prism or similar in-house software with the IC50 curve fitting using the four parameter logistic equation.
# [2] = molecular target: T2, human CA-II (Homo sapiens, UniProt P00918); assay: Carbonic Anhydrase-II (CA-II) Fluorimetric Assay-IC50 Determination; type: biochemical
# T2 construct: purchased Sigma-Aldrich C6165
# Outline: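 Enzyme activity is read fluorimetrically at 25° C (ex 488 nm / em 538 nm) as the rate at which human CA-II hydrolyses fluorescein diacetate. The buffer is Tris/HCl (50 mM, pH 7.6) with 100 mM Na2SO4 and 0.005% Tween-20. Inhibitors run in duplicate over 11 threefold dilutions, […]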
# [3] = molecular target: T2, human CA-II; assay: Carbonic Anhydrase-II (CA-II) Fluorescence Polarization Tight Binding Assay-Kd Determination
# Procedure: Assays were conducted in a final volume of 100 μL in 50 mM Tris/HCl (pH 7.6), 100 mM Na2SO4 and 0.005% Tween-20 in a 96-well black assay plate. […] The assay plate was
# The Kd binding was calculated using GraphPad Prism and Morrison tight binding ligand equation.
# [4] = molecular target: T3, human CA-IV (Homo sapiens, UniProt P22748); assay: Carbonic Anhydrase-IV (CA-IV) Fluorescence Polarization Assay-IC50 Determination; type: binding
# T3 construct: made in house; host or cells: Escherichia coli BL21(DE3)
# Outline: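 IC50 values come from a fluorescence polarization read-out. The CA-IV protein was zinc-supplemented during expression and purified by cation exchange then gel filtration, ending in 25 mM Tris-HCl pH 7.0 with 100 mM NaCl at 7.0 mg/mL.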
# [5] = molecular target: CAI (Homo sapiens, UniProt P00915); assay: CAI IC50 (no method described); type: biochemical
# CAI, sequence (P00915 whole entry, species assumed): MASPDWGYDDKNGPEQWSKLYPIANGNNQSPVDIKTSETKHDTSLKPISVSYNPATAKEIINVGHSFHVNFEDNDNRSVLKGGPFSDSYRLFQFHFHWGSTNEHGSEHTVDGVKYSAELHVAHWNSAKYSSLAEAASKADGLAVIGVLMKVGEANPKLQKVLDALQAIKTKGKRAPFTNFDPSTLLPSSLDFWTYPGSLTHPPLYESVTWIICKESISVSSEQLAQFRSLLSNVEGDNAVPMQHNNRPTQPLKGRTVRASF
# T3 sequence (P22748 19-284 limits assumed): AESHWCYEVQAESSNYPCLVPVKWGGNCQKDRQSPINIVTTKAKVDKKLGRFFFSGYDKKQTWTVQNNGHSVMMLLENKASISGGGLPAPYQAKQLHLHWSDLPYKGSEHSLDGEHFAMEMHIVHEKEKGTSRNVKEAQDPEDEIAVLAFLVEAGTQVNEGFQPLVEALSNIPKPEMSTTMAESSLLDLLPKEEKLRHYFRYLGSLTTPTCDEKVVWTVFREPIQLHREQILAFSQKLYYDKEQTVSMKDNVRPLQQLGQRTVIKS
SMILES,IC50 [5] [nM],Kd ([3]; read-out: Kd_CAII) [nM],IC50 ([4]; read-out: IC50_CAIV) [nM],further results
"COC[C@H](C)NC(=O)c1nc(Cc2ccccc2)n(-c2ccc(S(N)(=O)=O)cc2)n1 [Example R-21, 1-[4-(aminosulfonyl)phenyl]-5-benzyl-N-[(1S)-2-methoxy-1-methylethyl]-1H-124-triazole-3-carboxamide]",,,,"IC50 [1]: 53.3 nM; inhibition at 0.1 µM ([2]; CA II Min dose 100 nM, read-out: CAII % Inh @ Min dose): 100%; Kd ([3]; read-out: CA-II Kd): 0.09 nM; inhibition at 0.2 µM ([4]; CA-IV Min dose 200 nM, read-out: CA-IV: % Inh @ Min dose): 53.6%; IC50 ([4]; read-out: CA-IV IC50): 356 nM"
"CC(C)OC(=O)c1nc(Cc2ccccc2)n(-c2ccc(S(N)(=O)=O)cc2)n1 [Example P-1, Isopropyl 1-[4-(aminosulfonyl)phenyl]-5-benzyl-1H-1,2,4-triazole-3-carboxylate]",41,0.15,486,
"Cc1cccc(Cc2nc(C)nn2-c2ccc(S(N)(=O)=O)c(F)c2F)c1 [Example Q-1, 2,3-Difluoro-4-[3-methyl-5-(3-methylbenzyl)-1H-1,2,4-triazol-1-yl]benzenesulfonamide]",4610,,,% printed in column IC50—CAII ([2]; 69 0.010 nM (so in the source)): 0% 69 0.010 nM; % printed in column IC50_CAIV ([4]; @ 5 uM): 51% @ 5 uM
"CN(CCN1CCOCC1)C(=O)c1nc(Cc2ccccc2)n(-c2ccc(S(N)(=O)=O)cc2F)n1 [Example A-1k, 1-[4-(aminosulfonyl)-2-fluorophenyl]-5-benzyl-N-methyl-N-(2-morpholin-4-ylethyl)-1H-1,2,4-triazole-3-carboxamide]",23,0.22,148,
"CN(C)[C@H]1CCN(C(=O)c2nc(Cc3ccccc3)n(-c3ccc(S(N)(=O)=O)cc3F)n2)C1 [Example A-1m, 4-(5-benzyl-3-{[(3S)-3-(dimethylamino)pyrrolidin-1-yl]carbonyl}-1H-1,2,4-triazol-1-yl)-3-fluorobenzenesulfonamide]",21,0.2,429,
